Experimental data: patent publication US20240033236A1, “METHODS OF TREATING HERPES VIRAL INFECTION WITH 4-PHENYLBUTYRATE (PBA) OR A PHARMACEUTICALLY ACCEPTABLE SALT THEREOF” (THE BOARD OF TRUSTEES OF THE UNIVERSITY OF ILLINOIS, priority 2020, published 2024)
Entries after “also recorded” stand apart in the source; their conditions may differ.

Experiments:
[1] = in vivo, iv; cited from earlier work
[2] = test system: HSV-1 McKrae; assay: Murine HSV-1 encephalitis model (intranasal infection); format: in vivo; settings: BALB/C mice, intranasal HSV-1 McKrae, compared with untreated
[3] = test system: HSV-1; assay: Plaque assay of HSV-1 infected HCEs treated with ER stress modulators; settings: 0.1 MOI HSV-1 K26RFP, 24 hpi, tunicamycin, thapsigargin, Brefeldin-A 1 μM, salubrinal 75 μM, PBA 10 mM
Protocol: Infected cells suspended in 5004 of Opti-MEM prior to sonication using a probe sonication system at 70% amplitude for 30 seconds. Sonicated cell lysates or ocular/vaginal swabs were used as inoculants for a plaque assay to determine the total amount of infectious virus. In a typical experiment, Vero cells were plated at a seating density of 5×10^4 per well in a 24 well plate overnight. Upon confluency, the cell monolayers were washed with PBS and infected samples were overlaid for a period of 2 h at multiple dilutions. The cells were then washed twice with PBS prior to the addition of DMEM mixed with 0.5% methylcellulose. The plates were incubated for 72 h at 37° C. and 5% CO2 before they were fixed with methanol and stained with crystal violet to determine the extent of plaque formation.
HCEs were infected with 0.1 MOI HSV-1 K26RFP and treated with tunicamycin (1 μM), thapsigargin (1 μM), Brefeldin-A (1 μM), salubrinal (75 μM) or PBA (10 mM). At 24 hpi, cells were imaged for the presence of fluorescent HSV-1 and cells were lysed and used as inoculum on Vero cells to assess viral titer via plaque assay (FIGS. 3A and 3B). […] HCEs infected and treated with PBA with various concentrations were collected 24 hpi and the lysates from these cells were used as inoculum on Vero cells to determine a concentration dependent viral inhibition via a plaque assay (FIG. 3E).

[4] = test system: HSV; assay: Viral protein synthesis in HSV infected cells (immunoblotting); settings: in vitro
Protocol: Cells were scraped and incubated with 1004 of Radioimmunoprecipitation assay (RIPA) buffer with protease phosphatase inhibitor cocktail (Halt™, 78440) for a period of 30 minutes on ice. Whole cell protein extracts (supernatant) were collected by centrifuging the mixture at 13,500 rpm on a bench top refrigerated (4° C.) centrifuge for 15 minutes. Protein samples were then denatured in NuPAGE LDS Sample Buffer (Invitrogen, NP00007) and 6-mercaptoethanol by heating them to 80° C. for 10 min. The denatured protein samples were allowed to cool and equal amounts of protein were added to 4-12% SDS-PAGE loading gels and run at a constant speed of 70V for 3 h. The protein from the gel was then transferred to a nitrocellulose membrane using an iBlot 2 dry transfer machine (Thermofisher Scientific, USA). Nitrocellulose membrane was blocked in 5% nonfat milk/BSA in tris buffer saline (TBS) and 0.1% tween 20 (TBST) for 1 h at room temperature. After the blocking step, membranes were incubated with primary antibody at dilutions of 1:1000 overnight at 4° C. The following day the blots were washed multiple times with TBST before the addition of horse radish peroxidase conjugated secondary IgG antibody at dilutions of 1:10,000 at room temperature. […] The density of the bands was quantified using ImageQuant TL image analysis software (version: 7). GAPDH was measured as a loading control.

[5] = in vivo; cited from earlier work
[6] = test system: HSV-1 infected HCEs; assay: Survival and syncytia of HSV-1 infected HCEs in cell culture; format: cell-based, human

Nc1nc2c(ncn2COCCO)c(=O)[nH]1 [ACV, acyclovir]
renal toxicity [1]: renal toxicity including acute kidney injury
appearance and behavior of infected mice [2]: look healthier with no behavioral changes

C[C@H]1CCC/C=C/[C@@H]2C[C@H](O)C[C@H]2[C@H](O)/C=C/C(=O)O1 [BA, Brefeldin-A]
viral replication / viral infection in HSV-1 infected HCEs [3]: inhibited viral replication

O=C([O-])CCCc1ccccc1.[Na+] [NaPBA, sodium 4-phenylbutanoate]
viral protein synthesis [4]: suppressed viral protein synthesis

O=c1[nH]c(=O)n([C@H]2C[C@H](O)[C@@H](CO)O2)cc1C(F)(F)F [TFT, trifluridine]
corneal toxicity [5]: corneal toxicity including inflammation, dryness and pain

C/C=C(/C)C(=O)O[C@H]1C(C)=C2[C@H]([C@@H]1OC(=O)CCCCCCC)[C@@](C)(OC(C)=O)C[C@H](OC(=O)CCC)[C@@]1(O)[C@H]2OC(=O)[C@@]1(C)O [TG, Thapsigargin]
viral replication / viral infection in HSV-1 infected HCEs [3]: inhibited viral replication

O=C(/C=C/c1ccccc1)NC(NC(=S)Nc1cccc2cccnc12)C(Cl)(Cl)Cl (stereo not drawn) [salubrinal]
viral replication / viral infection in HSV-1 infected HCEs [3]: increased viral replication
survival of the HSV-1 infected cell [6]: form large syncytia and survive longer in cell culture; also recorded: increased survival of the cell

Tunicamycin [TM]
viral replication / viral infection in HSV-1 infected HCEs [3]: inhibited viral replication
